Here are results for one compound from patent publication US20240198287A1, “CARBON DIOXIDE RECOVERING METHOD AND CARBON DIOXIDE RECOVERING DEVICE” (MITSUBISHI GAS CHEMICAL COMPANY, INC., priority 2021, published 2024).

The nature of the series: Acid dissociation constant (pKa) by acid-base titration. The settings on record: purified water; titration with 0.1 N perchloric acid-acetic acid solution, 25±2° C. Type of series: physicochemical. The protocol:
In the present description, the acid dissociation constant of the amine compound (a) is a value obtained by the following measurement method based on an acid-base titration method. • (1) Dissolving 0.2 g of the amine compound (a) in 30 mL of purified water. • (2) Calculating the acid dissociation constant (pKa) by titrating the solution obtained in the above (1) with 0.1 N perchloric acid-acetic acid solution using an automatic potentiometric titrator (for example, AT-610 produced by Kyoto Electronics Manufacturing Co., Ltd.).
Still, let a temperature at a time of measurement be 25±2° C.
The acid dissociation constant of the amine compound (a) was determined by the following method. • (1) Dissolving 0.2 g of the amine compound (a) in 30 mL of the purified water. • (2) Calculating the acid dissociation constant (pKa) by titrating the solution obtained in the above (1) with the 0.1 N perchloric acid-acetic acid solution using the automatic potentiometric titrator (AT-610 produced by Kyoto Electronics Manufacturing Co., Ltd.).
Still, let the temperature at the time of measurement be 25±2° C.

The term pKa denotes the pH at which an ionisable group is half protonated. Consider `NCC1CCCC(CN)C1` (stereo not shown) [1,3-BAC, 1,3-bis(aminomethyl)cyclohexane], for which the pKa came out at 10.8.
